From patent US8822449B2, “Substituted aminoindanes and analogs thereof, and the pharmaceutical use thereof” (Sanofi, priority 2008, dated 2014)

target: T1, sodium-proton exchanger of subtype 3 (NHE3) (Homo sapiens, UniProt P48764); assay: Recovery of intracellular pH (pHi) after acidification in LAP1 cells stably expressing NHE3 (BCECF fluorescence, FLIPR); type: cell-based; conditions: LAP1 cells stably expressing NHE3; pH recovery after acidification; range 1 is % inhibition at 10 μM; read-out: Activity range (inhibitory effect on NHE3)
T1 construct: expressed in transfected cells
T1 sequence (P48764 26-834): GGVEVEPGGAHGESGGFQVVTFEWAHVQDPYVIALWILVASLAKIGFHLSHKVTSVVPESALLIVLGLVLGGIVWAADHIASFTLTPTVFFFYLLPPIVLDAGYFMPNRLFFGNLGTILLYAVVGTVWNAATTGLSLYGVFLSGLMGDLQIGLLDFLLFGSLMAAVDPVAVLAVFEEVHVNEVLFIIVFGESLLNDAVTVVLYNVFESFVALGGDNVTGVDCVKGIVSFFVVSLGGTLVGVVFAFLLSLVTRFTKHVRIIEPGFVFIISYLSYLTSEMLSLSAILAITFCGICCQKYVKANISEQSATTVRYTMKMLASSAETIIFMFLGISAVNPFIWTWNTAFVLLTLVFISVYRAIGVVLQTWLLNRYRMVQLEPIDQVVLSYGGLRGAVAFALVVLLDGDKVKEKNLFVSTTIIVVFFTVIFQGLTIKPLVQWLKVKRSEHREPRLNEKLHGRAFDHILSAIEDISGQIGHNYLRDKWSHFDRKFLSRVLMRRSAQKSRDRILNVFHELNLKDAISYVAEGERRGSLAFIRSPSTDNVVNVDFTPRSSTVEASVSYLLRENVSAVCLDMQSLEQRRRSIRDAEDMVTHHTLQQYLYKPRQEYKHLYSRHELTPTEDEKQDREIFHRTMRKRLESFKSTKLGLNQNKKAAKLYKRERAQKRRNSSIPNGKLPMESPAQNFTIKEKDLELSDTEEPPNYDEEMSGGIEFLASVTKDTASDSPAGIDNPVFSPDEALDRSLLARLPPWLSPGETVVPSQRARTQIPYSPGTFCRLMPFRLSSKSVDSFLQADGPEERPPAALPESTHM

Row | SMILES | IC50 [µM] | inhibition at 10 µM [%]
1 | Cc1nnc(C)n1-c1ccc(O[C@H]2c3cc(Cl)ccc3C[C@@H]2N2CC[C@@H](F)C2)c(Cl)c1 [Example 558, 4-{3-chloro-4-[trans-(1S,2S)-6-chloro-2-((R)-3-fluoropyrrolidin-1-yl)indan-1-yloxy]phenyl}-3,5-dimethyl-4H-[1,2,4]triazole] | < 1 | –
2 | Clc1cc(Cl)c2c(c1)[C@H](Oc1ccc(-n3cncn3)cc1)[C@@H](N1CCOCC1)C2 (racemic) [Example 549, 4-[rac-trans-(1,2)-4,6-dichloro-1-(4-[1,2,4]triazol-1-ylphenoxy)indan-2-yl]morpholine] | – | 20 to 50
3 | N[C@@H]1CCCN([C@@H]2Cc3ccccc3[C@H]2Oc2cccc(N3CCCCC3)c2)C1 (racemic) [Example 59, (R)-1-[rac-trans-(1,2)-1-(3-piperidin-1-ylphenoxy)indan-2-yl]piperidin-3-ylamine] | 1 to 10 | –
4 | Cc1nnc(C)n1-c1ccc(O[C@H]2c3cc(Cl)ccc3C[C@@H]2N2CCOCC2)c(Cl)c1 [Example 566, 4-{trans-(1S,2S)-6-chloro-1-[2-chloro-4-(3,5-dimethyl-[1,2,4]triazol-4-yl)phenoxy]indan-2-yl}morpholine] | < 1 | –
5 | c1cc(CN2CCCCC2)cc(O[C@@H]2c3ccccc3C[C@H]2N2C[C@H]3CNC[C@H]3C2)c1 (racemic) [Example 14, 2-[rac-trans-(1,2)-1-(3-piperidin-1-ylmethylphenoxy)indan-2-yl]octahydropyrrolo[3,4-c]pyrrole] | 1 to 10 | –
6 | CS(=O)(=O)c1ccc(O[C@H]2c3cc(Cl)cc(Cl)c3C[C@@H]2CN2CCCC2)cc1 (racemic) [Example 280, trans-4,6-dichloro-1-(4-methylsulfonyl-phenyloxy)-2-pyrrolidinylmethylindane] | 1 to 10 | –
7 | CC(=O)Nc1ccc(S[C@H]2c3cc(Cl)cc(Cl)c3C[C@@H]2N2CC[C@@H](O)C2)cc1 [Example 699, N-{4-[(1S,2S)-4,6-dichloro-2-((R)-3-hydroxypyrrolidin-1-yl)indan-1-ylsulfanyl]phenyl}acetamide] | 1 to 10 | –
8 | O=C1OCCN1c1ccc(Cl)c(O[C@H]2c3cc(Cl)cc(Cl)c3C[C@@H]2N2CC[C@@H](O)C2)c1 [Example 434, 3-{4-chloro-3-[(1S,2S)-4,6-dichloro-2-((R)-3-hydroxypyrrolidin-1-yl)indan-1-yloxy]phenyl}oxazolidin-2-one] | < 1 | –
9 | CS(=O)(=O)c1ccc(O[C@H]2c3cc(F)ccc3C[C@@H]2N2CCN(CC#N)CC2)cc1 (racemic) [Example 242, {4-[rac-trans-(1,2)-6-fluoro-1-(4-methanesulfonylphenoxy)indan-2-yl]piperazin-1-yl}acetonitrile] | – | 20 to 50
10 | CN(C)S(=O)(=O)c1ccc(OC2c3ccccc3CC2N2CCC[C@@H](N)C2)c(Cl)c1Cl (mixture of isomers) [Example 520, 4-[rac-trans-(1,2)-2-((R)-3-aminopiperidin-1-yl)indan-1-yloxy]-2,3-dichloro-N,N-dimethylbenzenesulfonamide] | < 1 | –
11 | N#Cc1ccc(O[C@H]2c3ccccc3CC[C@@H]2N2CCC[C@H](N)C2)cc1Cl (racemic) [Example 529, 4-[rac-trans-(1,2)-2-((S)-3-aminopiperidin-1-yl)-1,2,3,4-tetrahydronaphthalen-1-yloxy]-2-chlorobenzonitrile] | – | 20 to 50
12 | CN(C1CCCNC1)[C@@H]1Cc2ccccc2[C@H]1Oc1cccc2[nH]ccc12 (mixture of isomers) [Example 214, [rac-trans-(1,2)-1-(1H-indol-4-yloxy)indan-2-yl]methylpiperidin-3-ylamine] | 1 to 10 | –
13 | Cc1nnc(C)n1-c1ccc(O[C@H]2c3ccccc3C[C@@H]2N2CCC[C@@H](NCCC(F)(F)F)C2)cc1 [Example 1, ((R)-1-{trans-(1S,2S)-1-[4-(3,5-dimethyl-[1,2,4]triazol-4-yl)phenoxy]indan-2-yl}piperidin-3-yl)-(3,3,3-trifluoropropyl)amine] | 1 to 10 | –
14 | CN1CC(=O)N(c2ccc(Cl)c(O[C@H]3c4cc(Cl)cc(F)c4C[C@@H]3N3CC[C@@H](O)C3)c2)C1=O [Example 435, 3-{4-chloro-3-[(1S,2S)-6-chloro-4-fluoro-2-((R)-3-hydroxypyrrolidin-1-yl)indan-1-yloxy]phenyl}-1-methylimidazolidine-2,4-dione] | 1 to 10 | –
15 | CCc1nc(C)cn1-c1ccc(O[C@H]2c3cc(Cl)cc(Cl)c3C[C@@H]2N2CC[C@@H](O)C2)cc1 [Example 712, (R)-1-{trans-(1S,2S)-4,6-Dichloro-1-[4-(2-ethyl-4-methyl-imidazol-1-yl)-phenoxy]-indan-2-yl}-pyrrolidin-3-ol] | 1 to 10 | –
16 | N#Cc1ccc2cccc(O[C@H]3c4ccccc4CC[C@@H]3N3CCC[C@H](N)C3)c2n1 (racemic) [Example 596, 8-[rac-trans-(1,2)-2-((S)-3-aminopiperidin-1-yl)-1,2,3,4-tetrahydronaphthalen-1-yloxy]quinoline-2-carbonitrile] | 1 to 10 | –
17 | NS(=O)(=O)c1ccc(O[C@@H]2c3ccccc3C[C@H]2NCC2CCC2)c(F)c1 (racemic) [Example 718, 4-[rac-trans-(1,2)-2-(Cyclobutylmethyl-amino)-indan-1-yloxy]-3-fluoro-benzenesulfonamide] | < 1 | –
18 | Fc1ccc(O[C@H]2c3cc(Cl)cc(Cl)c3C[C@@H]2N2CCC2)c2ncccc12 [Example 591, 8-((1S,2S)-2-azetidin-1-yl-4,6-dichloroindan-1-yloxy)-5-fluoroquinoline] | – | 20 to 50
19 | CS(=O)(=O)c1ccc(O[C@H]2c3cc(Cl)cc(Cl)c3C[C@@H]2N2CCCN(CCF)CC2)cc1 [Example 303, 1-[trans-(1S,2S)-4,6-dichloro-1-(4-methanesulfonylphenoxy)indan-2-yl]-4-(2-fluoroethyl)-[1,4]diazepane] | < 1 | –
20 | NC(=O)c1ccccc1O[C@H]1c2ccccc2CC[C@@H]1N1CCC[C@@H](N)C1 (racemic) [Example 368, 2-[rac-trans-(1,2)-2-((R)-3-aminopiperidin-1-yl)-1,2,3,4-tetrahydronaphthalen-1-yloxy]benzamide] | 1 to 10 | –
21 | CS(=O)(=O)c1ccc(O[C@H]2c3cc(Cl)cc(Cl)c3C[C@@H]2N2CCC[C@@H](NCC#N)C2)cc1 [Example 225, {(R)-1-[trans-(1S,2S)-4,6-dichloro-1-(4-methanesulfonylphenoxy)indan-2-yl]piperidin-3-ylamino}acetonitrile] | < 1 | –
22 | Cc1nc2cc(O[C@@H]3c4ccccc4C[C@H]3N3CCC(CN)C3)ccc2s1 (mixture of isomers) [Example 608, C-{1-[rac-trans-(1,2)-1-(2-methylbenzothiazol-5-yloxy)indan-2-yl]pyrrolidin-3-yl}methylamine] | 1 to 10 | –
23 | C[C@H]1CN([C@H]2Cc3c(Cl)cc(Cl)cc3[C@@H]2Oc2ccc(S(C)(=O)=O)cc2)CCN1 [Example 197, (S)-1-[trans-(1S,2S)-4,6-dichloro-1-(4-methanesulfonylphenoxy)indan-2-yl]-3-methylpiperazine] | < 1 | –
24 | CS(=O)(=O)c1ccc(O[C@H]2c3cc(Cl)c(Cl)cc3C[C@@H]2N2CCCNCC2)cc1 (racemic) [Example 286, 1-[rac-trans-(1,2)-5,6-dichloro-1-(4-methanesulfonylphenoxy)indan-2-yl]-[1,4]diazepane] | 1 to 10 | –
25 | CC(=O)Nc1cccc(O[C@H]2c3cc(F)cc(Cl)c3C[C@@H]2N2CCCC2)c1 (racemic) [Example 651, N-[3-(rac-trans-(1,2)-4-chloro-6-fluoro-2-pyrrolidin-1-ylindan-1-yloxy)phenyl]acetamide] | 1 to 10 | –
26 | NC1CCN([C@@H]2Cc3ccccc3[C@H]2Oc2ccc(Br)cc2-c2cc[nH]n2)CC1 (racemic) [Example 343, 1-{rac-trans-(1,2)-1-[4-bromo-2-(1H-pyrazol-3-yl)phenoxy]indan-2-yl}piperidin-4-ylamine] | 1 to 10 | –
27 | N[C@H]1CCCN([C@H]2CCc3ccccc3[C@@H]2Oc2ccc(F)cc2F)C1 (racemic) [Example 149, (S)-1-[rac-trans-(1,2)-1-(2,4-difluorophenoxy)-1,2,3,4-tetrahydronaphthalen-2-yl]piperidin-3-ylamine] | – | 20 to 50
28 | N[C@@H]1CCCN([C@H]2CCc3ccccc3[C@@H]2Oc2ccc(F)cc2-c2ccno2)C1 (racemic) [Example 68, (R)-1-[rac-trans-(1,2)-1-(4-fluoro-2-isoxazol-5-ylphenoxy)-1,2,3,4-tetrahydronaphthalen-2-yl]piperidin-3-ylamine] | – | 20 to 50
29 | N#Cc1ccc(O[C@@H]2c3ccccc3C[C@H]2N2CCC[C@@H](N)C2)cc1Cl (racemic) [Example 521, 4-[rac-trans-(1,2)-2-((R)-3-aminopiperidin-1-yl)indan-1-yloxy]-2-chlorobenzonitrile] | 1 to 10 | –
30 | N[C@H]1CCCN([C@@H]2Cc3ccccc3[C@H]2Oc2cccc(CN3CCCCC3)c2)C1 (racemic) [Example 170, (S)-1-[rac-trans-(1,2)-1-(3-piperidin-1-ylmethylphenoxy)indan-2-yl]piperidin-3-ylamine] | 1 to 10 | –
